In US7998965B2, “Glutamate aggrecanase inhibitors” (Wyeth LLC, priority 2005, dated 2011):
Like-named read-outs stand apart in the source and are kept apart here.

What was measured:
[1] = molecular target: T1, purified recombinant human Aggrecanase-1 (rAgg1) (Homo sapiens, UniProt O75173); assay: In vitro fluorescence screen for Aggrecanase-1 inhibitors; type: biochemical; conditions: for IC50: read-out: Agg1 IC50; for Ki: read-out: Ki Agg1
T1 sequence (O75173 213-837): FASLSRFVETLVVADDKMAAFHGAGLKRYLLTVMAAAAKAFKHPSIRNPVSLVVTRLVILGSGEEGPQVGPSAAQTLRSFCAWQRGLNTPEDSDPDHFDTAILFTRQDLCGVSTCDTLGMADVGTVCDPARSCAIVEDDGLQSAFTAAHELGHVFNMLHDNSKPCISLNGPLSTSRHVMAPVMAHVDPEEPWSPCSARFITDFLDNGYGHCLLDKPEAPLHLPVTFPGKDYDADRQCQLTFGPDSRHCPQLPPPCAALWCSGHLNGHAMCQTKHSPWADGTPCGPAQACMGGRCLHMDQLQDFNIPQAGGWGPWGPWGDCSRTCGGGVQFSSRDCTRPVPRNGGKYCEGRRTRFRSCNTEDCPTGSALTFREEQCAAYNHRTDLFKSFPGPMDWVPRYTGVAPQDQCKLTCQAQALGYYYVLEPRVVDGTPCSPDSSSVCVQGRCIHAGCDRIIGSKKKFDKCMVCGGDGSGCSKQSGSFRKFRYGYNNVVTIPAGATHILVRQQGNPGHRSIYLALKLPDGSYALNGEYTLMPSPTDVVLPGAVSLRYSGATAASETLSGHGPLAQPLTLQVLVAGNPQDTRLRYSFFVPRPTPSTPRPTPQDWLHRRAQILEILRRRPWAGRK

[2] = molecular target: T2, purified recombinant human Aggrecanase-2 (Ag2t-Phe628-Strep) (Homo sapiens, UniProt Q9UNA0); assay: In vitro fluorescence screen for Aggrecanase-2 inhibitors; type: biochemical; conditions: for IC50: read-out: Agg 2 IC50; for Ki: read-out: Ki Agg2
T2 construct: the form used is denoted as Ag2t-Phe628-Strep (MW=41,737)
T2 sequence (Q9UNA0 262-628): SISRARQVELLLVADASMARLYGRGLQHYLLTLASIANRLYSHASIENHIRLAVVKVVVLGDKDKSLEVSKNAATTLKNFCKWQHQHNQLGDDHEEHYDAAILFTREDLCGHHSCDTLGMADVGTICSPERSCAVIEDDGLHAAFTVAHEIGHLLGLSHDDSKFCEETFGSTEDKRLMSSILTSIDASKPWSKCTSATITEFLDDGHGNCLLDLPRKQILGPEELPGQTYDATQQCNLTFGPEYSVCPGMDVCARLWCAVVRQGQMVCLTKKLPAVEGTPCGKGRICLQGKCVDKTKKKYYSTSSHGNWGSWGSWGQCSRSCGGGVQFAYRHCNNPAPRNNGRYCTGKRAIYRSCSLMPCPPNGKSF

## C[C@@H](NC(=O)[C@H](CCC(=O)O)NC(=O)c1ccc(-c2ccccc2)cc1)c1ccc(F)cc1 [Example 8TTTTT, N^2-(biphenyl-4-ylcarbonyl)-N^1-[(1R)-1-(4-fluorophenyl)ethyl]-L-α-glutamine]
[1]; Table 2
  IC50: 389 nM
[2]; Table 2
  IC50: 2.01 µM

## Cc1cccc(CNC(=O)[C@H](CCC(=O)O)NC(=O)c2ccc(-c3cccc(CBr)c3)cc2)c1 [Example 8TTTTTTT, N^2-{[3′-(bromomethyl)biphenyl-4-yl]carbonyl}-N-(3-methylbenzyl)-L-α-glutamine]
[1]; Table 3
  IC50: 707 nM
[2]; Table 3, at 11000 (nM), read-out: Agg 2 % at concentration
  inhibition at 11 µM: 20%

## O=C(O)CC[C@H](NC(=O)C1c2ccccc2-c2ccccc21)C(=O)NCCCCCCO [Example 8UUUU, N^2-(9H-fluoren-9-ylcarbonyl)-N^1-(6-hydroxyhexyl)-L-α-glutamine]
[1]; Table 2
  IC50: > 17000 nM
[2]; Table 2
  IC50: ~67 µM

## C[C@@H](NC(=O)[C@H](CCC(=O)O)NC(=O)c1ccc(-c2ccccc2)cc1)c1ccccc1 [Example 8UUUUU, N^2-(biphenyl-4-ylcarbonyl)-N^1-[(1R)-1-phenylethyl]-L-α-glutamine]
[1]; Table 2
  IC50: 317 nM
[2]; Table 2
  IC50: 2.12 µM

## COc1cc(CNC(=O)[C@H](CCC(=O)O)NC(=O)C2c3ccccc3-c3ccccc32)cc(OC)c1OC [Example 8VVVV, N^2-(9H-fluoren-9-ylcarbonyl)-N^1-(3,4,5-trimethoxybenzyl)-L-α-glutamine]
[1]; Table 2
  IC50: > 17000 nM
[2]; Table 2
  IC50: > 67 µM

## C[C@@H](NC(=O)[C@H](CCC(=O)O)NC(=O)c1ccc2c(c1)Cc1ccccc1-2)c1ccccc1 [Example 8VVVVV, N^2-(9H-fluoren-2-ylcarbonyl)-N^1-[(1R)-1-phenylethyl]-L-α-glutamine]
[1]; Table 2
  IC50: 221 nM
[2]; Table 2
  IC50: 1.56 µM

## COc1cc(CNC(=O)[C@H](CCC(=O)O)NC(=O)c2cccc(Oc3ccccc3)c2)cc(OC)c1OC [Example 8WWWW, N^2-(3-phenoxybenzoyl)-N^1-(3,4,5-trimethoxybenzyl)-L-α-glutamine]
[1]; Table 2
  IC50: 8300 nM
[2]; Table 2
  IC50: > 67 µM

## O=C(O)CC[C@H](NC(=O)c1cccc2c1Cc1ccccc1-2)C(=O)NCCCCCCO [Example 8WWWWW, N^2-(9H-fluoren-1-ylcarbonyl)-N^1-(6-hydroxyhexyl)-L-α-glutamine]
[1]; Table 2
  IC50: > 17000 nM
[2]; Table 2
  IC50: > 67 µM

## COc1cc(CNC(=O)[C@H](CCC(=O)O)NC(=O)c2cccc3c2-c2ccccc2C3)cc(OC)c1OC [Example 8XXXX, N^2-(9H-fluoren-4-ylcarbonyl)-N^1-(3,4,5-trimethoxybenzyl)-L-α-glutamine]
[1]; Table 2
  IC50: > 50000 nM
[2]; Table 2
  IC50: > 200 µM

## O=C(O)CC[C@H](NC(=O)c1ccc2c(c1)C(=O)c1ccccc1-2)C(=O)NCCCCCCO [Example 8XXXXX, N^1-(6-hydroxyhexyl)-N^2-[(9-oxo-9H-fluoren-2-yl)carbonyl]-L-α-glutamine]
[1]; Table 2
  IC50: 246 nM
[2]; Table 2
  IC50: 1.45 µM

## CC(C)(Cc1ccc(Cl)cc1)NC(=O)[C@H](CCC(=O)O)NC(=O)c1ccc(-c2cccs2)cc1 [Example 8XXXXXXX, N-[2-(4-chlorophenyl)-1,1-dimethylethyl]-N^2-[4-(2-thienyl)benzoyl]-L-α-glutamine]
[1]; Table 3
  IC50: < 30 nM
  Ki: 4.5 nM
[2]; Table 3
  IC50: 0.02 to 0.07 µM
  Ki: 56 nM

## CC(C)(Cc1ccc(Cl)cc1)NC(=O)[C@H](CCC(=O)O)NC(=O)c1ccc(-c2ccccc2)nc1 [Example 8XXXXXXXX, N-[2-(4-chlorophenyl)-1,1-dimethylethyl]-N^2-[(6-phenylpyridin-3-yl)carbonyl]-L-α-glutamine]
[1]; Table 3
  IC50: 100 nM
[2]; Table 3
  IC50: 1.7 µM

## O=C(O)CC[C@H](NC(=O)c1ccc(-c2ccccc2)cc1)C(=O)NCCc1cccc(Cl)c1 [Example 8YY, N^2-(1,1′-biphenyl-4-ylcarbonyl)-N^1-[2-(3-chlorophenyl)ethyl]-L-α-glutamine]
[1]; Table 1
  IC50: 530 nM
[2]; Table 1
  IC50: 4.5 µM

## O=C(O)CC[C@H](NC(=O)c1ccc2c(c1)C(=O)c1ccccc1-2)C(=O)NC12CC3CC(CC(C3)C1)C2 [Example 8YYYY, N^1-1-adamantyl-N^2-[(9-oxo-9H-fluoren-2-yl)carbonyl]-L-α-glutamine]
[1]; Table 2
  IC50: 1500 nM
[2]; Table 2
  IC50: > 200 µM

## COc1cccc(-c2ccc(C(=O)N[C@@H](CCC(=O)O)C(=O)NC(C)(C)Cc3ccc(Cl)cc3)s2)c1 [Example 8YYYYYYY, N-[2-(4-chlorophenyl)-1,1-dimethylethyl]-N^2-{[5-(3-methoxyphenyl)-2-thienyl]carbonyl}-L-α-glutamine]
[1]; Table 3
  IC50: < 30 nM
  Ki: 27 nM
[2]; Table 3
  IC50: 0.2 to 0.6 µM
  Ki: 197 nM

## O=C(O)CC[C@H](NC(=O)c1ccc(Oc2ccccc2)cc1)C(=O)NC12CC3CC(CC(C3)C1)C2 [Example 8ZZZZ, N^1-1-adamantyl-N^2-(4-phenoxybenzoyl)-L-α-glutamine]
[1]; Table 2
  IC50: > 17000 nM
[2]; Table 2
  IC50: > 22 µM

## CC(C)(Cc1ccc(Cl)cc1)NC(=O)[C@H](CCC(=O)O)NC(=O)c1ccc(-c2ccc(F)c(F)c2)cc1 [Example 8ZZZZZZ, N-[2-(4-chlorophenyl)-1,1-dimethylethyl]-N^2-[(3′,4′-difluorobiphenyl-4-yl)carbonyl]-L-α-glutamine]
[1]; Table 3
  IC50: < 30 nM
[2]; Table 3
  IC50: 0.12 µM

## CC(C)(Cc1ccc(Cl)cc1)NC(=O)[C@H](CCC(=O)O)NC(=O)c1ccc(-c2ccccc2)s1 [Example 8ZZZZZZZ, N-[2-(4-chlorophenyl)-1,1-dimethylethyl]-N^2-[(5-phenyl-2-thienyl)carbonyl]-L-α-glutamine]
[1]; Table 3
  IC50: < 30 nM
  Ki: 12.7 nM
[2]; Table 3
  IC50: 0.2 to 0.6 µM
  Ki: 290 nM

## CC(C)(Cc1ccc(F)cc1)NC(=O)[C@H](CCC(=O)O)NC(=O)c1ccc(-c2cccnc2)s1 [Example 8ZZZZZZZZ, N-[2-(4-fluorophenyl)-1,1-dimethylethyl]-N^2-[(5-pyridin-3-yl-2-thienyl)carbonyl]-L-α-glutamine]
[1]; Table 3
  IC50: 20 to 70 nM
[2]; Table 3
  IC50: 9.9 µM

## O=C(O)CC[C@H](NC(=O)c1ccc(-c2ccccc2)cc1)C(=O)NCCc1ccc(-c2ccc(C(F)(F)F)cc2)cc1 [Example 10A, N^2-(biphenyl-4-ylcarbonyl)-N^1-{2-[4′-(trifluoromethyl)biphenyl-4-yl]ethyl}-L-α-glutamine]
[1]; Table 1
  IC50: 840 nM
[2]; Table 1
  IC50: 2.1 µM

## O=C(O)CC[C@H](NC(=O)c1ccc(-c2ccccc2)cc1)C(=O)NCCc1ccc(-c2ccccc2)cc1 [Example 10C, N^2-(biphenyl-4-ylcarbonyl)-N^1-(2-biphenyl-4-ylethyl)-L-α-glutamine]
[1]; Table 1
  IC50: 240 nM
[2]; Table 1
  IC50: > 5 µM

## O=C(O)CC[C@H](NC(=O)c1ccc(-c2ccccc2)cc1)C(=O)NCCc1ccc(-c2cccs2)cc1 [Example 10D, N^2-(biphenyl-4-ylcarbonyl)-N^1-{2-[4-(2-thienyl)phenyl]ethyl}-L-α-glutamine]
[1]; Table 1
  IC50: 480 nM
[2]; Table 1
  IC50: 3.2 µM

## C#Cc1ccc(-c2ccc(CCNC(=O)[C@H](CCC(=O)O)NC(=O)c3ccc(-c4ccccc4)cc3)cc2)cc1 [Example 10F, N^2-(biphenyl-4-ylcarbonyl)-N^1-[2-(4′-ethynylbiphenyl-4-yl)ethyl]-L-α-glutamine]
[1]; Table 1
  IC50: 130 nM
[2]; Table 1
  IC50: > 30 µM

## O=C(O)CC[C@H](NC(=O)c1ccc(-c2ccccc2)cc1)C(=O)NCCc1ccc(-c2ccccn2)cc1 [Example 10G, N^2-(biphenyl-4-ylcarbonyl)-N^1-[2-(4-pyridin-2-ylphenyl)ethyl]-L-α-glutamine]
[1]; Table 1
  IC50: 1000 nM
[2]; Table 1
  IC50: 4.4 µM

## O=C(O)CC[C@H](NC(=O)c1ccc(-c2ccccc2)cc1)C(=O)NCCc1cccc(-c2ccc(C(F)(F)F)cc2)c1 [Example 10K, N^2-(biphenyl-4-ylcarbonyl)-N^1-{2-[4′-(trifluoromethyl)biphenyl-3-yl]ethyl}-L-α-glutamine]
[1]; Table 1
  IC50: 380 nM
[2]; Table 1
  IC50: > 100 µM

## COc1ccc(-c2cccc(CCNC(=O)[C@H](CCC(=O)O)NC(=O)c3ccc(-c4ccccc4)cc3)c2)cc1 [Example 10L, N^2-(biphenyl-4-ylcarbonyl)-N^1-[2-(4′-methoxybiphenyl-3-yl)ethyl]-L-α-glutamine]
[1]; Table 1
  IC50: 130 nM
[2]; Table 1
  IC50: 2 µM

## O=C(O)CC[C@H](NC(=O)c1ccc(-c2ccc3ccccc3c2)cc1)C(=O)NCc1ccccc1 [Example 12F, N-benzyl-N^2-[4-(2-naphthyl)benzoyl]-L-α-glutamine]
[1]; Table 2
  IC50: ~3000 nM
[2]; Table 2
  IC50: 3 to 8 µM

## O=C(O)CC[C@H](NC(=O)c1ccc(C#Cc2ccccc2)cc1)C(=O)NCc1ccccc1 [Example 12G, N-benzyl-N^2-[4-(phenylethynyl)benzoyl]-L-α-glutamine]
[1]; Table 2
  IC50: > 25000 nM
[2]; Table 2
  IC50: 11.7 µM
